Data reported in patent publication US7786152B2, “Compound” (priority 2002, dated 2010).

biological target: T1, 11 β-HSD type 1 (Rattus norvegicus, UniProt P16232); experiment: 11 β-HSD type 1 inhibition, rat liver homogenate, conversion E to F (radiometric TLC); type: biochemical; settings: dose-response 1, 5, 10 and 20 μM, read-out: IC50 (11β HSD1)
T1 construct: Both the kidneys and livers were homogenised on ice in PBS-sucrose buffer; tissue Harlan Olac (rats); host or cells: Wistar rat liver homogenate supernatant
T1 sequence (P16232 whole entry): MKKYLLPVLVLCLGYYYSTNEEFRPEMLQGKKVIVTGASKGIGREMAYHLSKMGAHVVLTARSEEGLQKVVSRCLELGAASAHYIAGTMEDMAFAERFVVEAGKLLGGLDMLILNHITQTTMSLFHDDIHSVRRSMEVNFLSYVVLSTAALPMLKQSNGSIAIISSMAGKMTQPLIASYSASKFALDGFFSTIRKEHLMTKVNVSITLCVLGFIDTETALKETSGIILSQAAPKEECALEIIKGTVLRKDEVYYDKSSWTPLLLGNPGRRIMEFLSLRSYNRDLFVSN
Method: Enzymes—Rat livers and rat kidneys were obtained from normal Wistar rats (Harlan Olac, Bicester, Oxon, UK). Both the kidneys and livers were homogenised on ice in PBS-sucrose buffer (1 g/10 ml) using an Ultra-Turrax. After the livers and kidneys were homogenised the homogenate was centrifuged for five minutes at 4000 rpm. The supernatant obtained was removed and stored in glass vials at −20° C. The amount of protein per μl of rat liver and kidney cytosol was determined using the Bradford method.
11 β-HSD type 1 is the enzyme responsible for the conversion E to F and this type of enzyme is present in rat liver. The substrate solution used in this assay contained 70,000 cpm/ml ^3H-E in PBS-sucrose and 0.5 μM of unlabelled E and co-factor NADPH (9 mg/10 ml of substrate solution). 1 ml of the substrate solution and the different amounts of rat liver homogenate was added to all tubes.
The amount of rat liver homogenate needed for an assay was determined by incubating the substrate solution with 25, 50, 100 and 150 μl for 30, 60, 90 and 120 minutes at 37° C. in a water bath with the tubes being mechanically shaken. After the incubation 50 μL of recovery solution was added, containing about 8,000 cpm/50 μL of ^14C—F and 50 μg/50 μL of unlabelled F for visualising the spot on the TLC-plate, to correct for the losses made in the next two steps. F was then extracted from the aqueous phase with 4 ml of ether (2×30 sec cycle, vortex mix). The aqueous phase was then frozen using dry-ice and the organic layer was decanted and poured into smaller tubes and evaporated. 6 drops of ether were then added to the small tubes to re-dissolve the residue which was transferred to an aluminium thin layer chromatography plate (TLC-plate). The TLC-plate was developed in a TLC tank under saturated conditions. The solvent system used was chloroform:methanol 9:1 (v/v). The F spots on the TLC-plate were visualised under UV-light and cut out from the TLC-plate (Rf=0.45). The spots from the TLC-plate were then put into scintillation vials and 0.5 ml of methanol was added to all vials to elute the radioactivity from the TLC-plate for 5 minutes. 10 ml of Ecoscint was added to the scintillation vials and they were put into the scintillation counter to count amount of product formed.
In these assays the influence of different inhibitors on the 11 β-HSD activity both in reductive (type 1) and oxidative (type 2) directions were assessed. In the reductive direction E is the substrate and F the product and visa versa in the case of oxidation. The method described here is for the oxidative direction.
The substrate solution contained about 50,000 cpm/ml ^3H—F in PBS-sucrose and 0.5 μM F. 1 ml of the substrate solution was added to each tube, the inhibitors were also added, at a 10 μM concentration, to each tube except to the “control” and “blank” tubes. 150 μL was added to all tubes except to the blanks, this was done to correct for the amount of ^3H—F spontaneously formed. The tubes were incubated for 60 minutes in a mechanically shaken water bath at 37° C. The amount of kidney liver homogenate and incubation time used resulted from the enzyme- and time-dependency assay. After incubation 50 μL of recovery was added to correct for the losses made in the next steps, containing 5000 cpm/50 μL of ^14C-E and 50 μg/50 μL of unlabelled E (to visualise the spot on the TLC-plate). The aqueous mixture was then extracted with 4 ml of ether (2×30 sec cycle, vortex mix). After freezing the aqueous phase, the ether (upper) layer was decanted into smaller tubes and evaporated at 45° C. until completely dry. The residue was then re-dissolved in 6 drops of ether and transferred to a TLC-plate. The TLC-plate was developed in chloroform:methanol (9:1 v/v) solvent system, the TLC-plate ran for about 90 minutes until the solvent front had moved about 18 cm. The position of the product E was visualised under UV-light and cut out from the TLC-plate and put into scintillation vials. […]

Q: Which IC50 does the source give for CCCc1ccc(S(=O)(=O)Nc2ccc3sc(C)nc3c2)cc1 [compound 421] here?
A: 10 µM

Q: For Cc1nc2cc(NS(=O)(=O)c3cccc(Cl)c3C)ccc2s1 [compound 413], which IC50 is on record?
A: 6.6 µM

same assay, conditions: read-out: % inhibition of 11β HSD1 @ 10 μM, 10 μM, typical sd ± 5%, means n=2

Q: How did the inhibition at 10 µM turn out when CCCc1ccc(S(=O)(=O)Nc2ccc3sc(C)nc3c2)cc1 [compound 421] was run?
A: 60%

Q: How did the inhibition at 10 µM turn out when Cc1nc2cc(NS(=O)(=O)c3ccc(Br)cc3C)ccc2s1 [compound 523] was run?
A: 21%

Q: How did the inhibition at 10 µM turn out when COc1ccc(Cl)cc1S(=O)(=O)Nc1ccc2sc(C)nc2c1 [compound 582] was run?
A: 40%

Q: For Cc1nc2cc(NS(=O)(=O)c3ccc(C(C)(C)C)cc3)ccc2s1 [compound 709], which inhibition at 10 µM is on record?
A: 10%

Q: Cc1nc2cc(NS(=O)(=O)c3ccc(Br)cc3)ccc2s1 [compound 519] was tested. Which inhibition at 10 µM did it give?
A: 48%

Q: With COc1cc(C)ccc1S(=O)(=O)Nc1ccc2sc(C)nc2c1 [compound 584] as the compound, how does the inhibition at 10 µM read?
A: 48%

Q: With Cc1nc2cc(NS(=O)(=O)c3cccc(Cl)c3C)ccc2s1 [compound 413] as the compound, how does the inhibition at 10 µM read?
A: 53%

Q: For CCSc1nc2ccc(NS(=O)(=O)c3cccc(Cl)c3C)cc2s1 [compound 751], which inhibition at 10 µM is on record?
A: 10%

Q: Cc1nc2cc(NS(=O)(=O)c3c(Cl)cc(Cl)cc3Cl)ccc2s1 [compound 522] was tested. Which inhibition at 10 µM did it give?
A: 37%

Q: With CC(=O)c1ccccc1S(=O)(=O)Nc1ccc2sc(C)nc2c1 [compound 701] as the compound, how does the inhibition at 10 µM read?
A: 34%

Q: Which inhibition at 10 µM does the source give for Cc1nc2cc(NS(=O)(=O)c3cccc4c(N(C)C)cccc34)ccc2s1 [compound 554] here?
A: 69%

Q: For Cc1nc2cc(NS(=O)(=O)c3cccc4cccnc34)ccc2s1 [compound 552], which inhibition at 10 µM is on record?
A: 18%

Q: Which inhibition at 10 µM does the source give for COc1ccc(S(=O)(=O)Nc2ccc3sc(C)nc3c2)cc1 [compound 424] here?
A: 24%

Q: Cc1nc2cc(NS(=O)(=O)c3c(C)cccc3Cl)ccc2s1 [compound 425] was tested. Which inhibition at 10 µM did it give?
A: 40%

Q: For Cc1nc2cc(NS(=O)(=O)c3c(C)c(C)c(C)c(C)c3C)ccc2s1 [compound 710], which inhibition at 10 µM is on record?
A: 55%

Q: How did the inhibition at 10 µM turn out when Cc1nc2cc(NS(=O)(=O)c3c(C(C)C)cc(C(C)C)cc3C(C)C)ccc2s1 [compound 703] was run?
A: 35%

Q: How did the inhibition at 10 µM turn out when Cc1nc2cc(NS(=O)(=O)c3ccc(Oc4ccccc4)cc3)ccc2s1 [compound 585] was run?
A: 48%

Q: Which inhibition at 10 µM does the source give for Cc1nc2cc(NS(=O)(=O)c3cccc4ccccc34)ccc2s1 [compound 553] here?
A: 0.7%

Q: For Cc1nc2cc(NS(=O)(=O)c3ccccc3C#N)ccc2s1 [compound 583], which inhibition at 10 µM is on record?
A: 29%

Q: With Cc1nc2cc(NS(=O)(=O)c3ccc4c(c3)CN(C(=O)C(F)(F)F)CC4)ccc2s1 [compound 581] as the compound, how does the inhibition at 10 µM read?
A: 77%

Q: CCN(c1ccc2sc(C)nc2c1)S(=O)(=O)c1cccc(Cl)c1C [compound 470] was tested. Which inhibition at 10 µM did it give?
A: 39%

Q: With COC(=O)c1ccccc1S(=O)(=O)Nc1ccc2sc(C)nc2c1 [compound 705] as the compound, how does the inhibition at 10 µM read?
A: 6%

Q: How did the inhibition at 10 µM turn out when Cc1nc2cc(N(C)S(=O)(=O)c3cccc(Cl)c3C)ccc2s1 [compound 469] was run?
A: 63%

Q: COc1c(C)c(C)c(S(=O)(=O)Nc2ccc3sc(C)nc3c2)c(C)c1C [compound 708] was tested. Which inhibition at 10 µM did it give?
A: 39%

Q: Cc1nc2cc(NS(=O)(=O)c3ccc(C(C)C)cc3)ccc2s1 [compound 704] was tested. Which inhibition at 10 µM did it give?
A: 38%

Q: Cc1nc2cc(NS(=O)(=O)c3ccc(-c4ccccc4)cc3)ccc2s1 [compound 521] was tested. Which inhibition at 10 µM did it give?
A: 0.5%

Q: How did the inhibition at 10 µM turn out when Cc1nc2cc(NS(=O)(=O)c3ccc(Cl)cc3Cl)ccc2s1 [compound 412] was run?
A: 27%

Q: How did the inhibition at 10 µM turn out when Cc1nc2cc(NS(=O)(=O)c3cc(Cl)ccc3Cl)ccc2s1 [compound 580] was run?
A: 75%
